From ChEMBL document CHEMBL1201862, “PubChem BioAssay data set” (2004) come the findings set out here.

The structures appear in SMILES notation.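 Five concentrations, 48 hours, 96-well plates. GI50 is the concentration that inhibits growth by half.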 Calls of active or inactive are those of the source. No stated cut-off is given here; in the data, active = GI50 up to about 1.1 µM and inactive = higher.

Test systems include COLO 205; A549; KM-20L2; HCT-116; SNB-75; NCI-H23; UACC-257; CAKI-1; M14; OVCAR-5; NCI-H460; NCI-H226; HCC 2998; SK-MEL-2; SF-539; MDA-MB-231; MCF7; MDA-MB-435; PC-3; BT-549.
Holding throughout (test): NCI anticancer screen, dose series, 48 h

Consider `N#CC1CC2(C(=O)C1=O)c1ccccc1-c1ccccc12` (configuration not stated), for which the GI50 in the assay with COLO 205, with A549, in the assay on KM-20L2, in the assay with HCT-116, in the assay with SNB-75 and in the assay with NCI-H23 was > 100 µM (inactive) in each case. For the same molecule, the GI50 with UACC-257, with CAKI-1, in the assay with M14, with OVCAR-5, in the assay on NCI-H460 and in the assay with NCI-H226 was > 100 µM (inactive) throughout. The GI50 with HCC 2998 and in the assay on SK-MEL-2 was > 100 µM (inactive) throughout.

On to `COC1(C)C(=O)N2C1N(C(=O)OC(C)(C)C)CC2(C)C` (configuration not stated), for which the GI50 with COLO 205 is 36.5 µM (inactive); with SF-539, > 100 µM (inactive); in the assay on A549, > 100 µM (inactive); in the assay with KM-20L2, > 100 µM (inactive); in the assay on HCT-116, 96.4 µM (inactive); in the assay on SNB-75 it was > 100 µM (inactive). In addition, the GI50 was > 100 µM (inactive) in the assay with NCI-H23; > 100 µM (inactive) with UACC-257; > 100 µM (inactive) in the assay on CAKI-1; > 100 µM (inactive) with M14; > 100 µM (inactive) in the assay with OVCAR-5; 81.3 µM (inactive) in the assay with NCI-H460. The GI50 with NCI-H226, with HCC 2998 and in the assay with SK-MEL-2 was > 100 µM (inactive) throughout.

Regarding `COc1ccc(Nc2nc3c(N)cc(C(F)(F)F)cc3nc2-c2ccccc2)cc1`, the GI50 in the assay on COLO 205 was > 100 µM (inactive); in the assay with SF-539, > 100 µM (inactive); with A549, > 100 µM (inactive); in the assay with KM-20L2, > 100 µM (inactive); in the assay on HCT-116, > 100 µM (inactive); in the assay on SNB-75, 28.8 µM (inactive). Also, the GI50 was 69.7 µM (inactive) in the assay on NCI-H23; > 100 µM (inactive) with UACC-257; > 100 µM (inactive) in the assay on CAKI-1; 79.6 µM (inactive) in the assay on M14; > 100 µM (inactive) with OVCAR-5; 60.4 µM (inactive) in the assay with NCI-H460. The GI50 with NCI-H226 was 68.9 µM (inactive); with HCC 2998, > 100 µM (inactive); with SK-MEL-2, 89.5 µM (inactive).

With `O=C(COC(=O)c1cccc2c(=O)c3ccccc3[nH]c12)Nc1ccc(Cl)cc1`, the GI50 with COLO 205 is > 100 µM (inactive); in the assay with SF-539 it was 26.1 µM (inactive); in the assay on A549, > 100 µM (inactive); in the assay on KM-20L2 it was > 100 µM (inactive); with HCT-116, 13.6 µM (inactive); in the assay on SNB-75, 24.3 µM (inactive). The GI50 in the assay on NCI-H23 is 18.8 µM (inactive); in the assay on UACC-257, > 100 µM (inactive); in the assay on CAKI-1 it was > 100 µM (inactive); in the assay on M14, 78.9 µM (inactive); with NCI-H460 it was 63.4 µM (inactive); in the assay on NCI-H226, 72.8 µM (inactive). Besides, the GI50 in the assay on HCC 2998 was > 100 µM (inactive).

As for `N#CCC(=O)N1CCCCCCC1`, the GI50 was 14.1 µM (inactive) in the assay with COLO 205; > 100 µM (inactive) in the assay on SF-539; > 100 µM (inactive) in the assay with A549; > 100 µM (inactive) with KM-20L2; > 100 µM (inactive) with HCT-116; > 100 µM (inactive) in the assay on NCI-H23. Further, the GI50 with UACC-257 was > 100 µM (inactive); with CAKI-1, > 100 µM (inactive); in the assay with M14 it was > 100 µM (inactive); in the assay on OVCAR-5 it was > 100 µM (inactive); in the assay on NCI-H460, 42.7 µM (inactive); with HCC 2998, 69.3 µM (inactive). The GI50 with SK-MEL-2 is > 100 µM (inactive).

Consider `CC(=O)Oc1ccccc1C(=O)C1c2cccc(O)c2C(=O)c2c(O)cccc21`, for which the GI50 in the assay on COLO 205 is 0.705 µM (active); with SF-539, 0.46 µM (active); in the assay with A549, 0.776 µM (active); in the assay with KM-20L2 it was 2.4 µM (inactive); in the assay on HCT-116, 0.897 µM (active); in the assay on SNB-75, 0.695 µM (active). In addition, the GI50 was 1.09 µM (active) in the assay with NCI-H23; 1.62 µM (inactive) in the assay with UACC-257; 1.95 µM (inactive) in the assay with CAKI-1; 1.84 µM (inactive) in the assay on M14; 2.58 µM (inactive) in the assay on OVCAR-5; 0.433 µM (active) in the assay with NCI-H460. Besides, the results for the GI50 in the assay on NCI-H226, with HCC 2998 and with SK-MEL-2 were 1.63 µM (inactive), 0.581 µM (active) and 1.19 µM (inactive), respectively.

As for `CCc1cccc(CC)c1NC(=O)C1=C(C)NC(C)=C(C(=O)Nc2c(CC)cccc2CC)C1c1ccc2c(c1)OCO2`, the GI50 was 13.4 µM (inactive) in the assay with COLO 205; 22.5 µM (inactive) with SF-539; 25.9 µM (inactive) with A549; 16.9 µM (inactive) in the assay on KM-20L2; 18.2 µM (inactive) in the assay with HCT-116; 18.8 µM (inactive) with SNB-75. In addition, the GI50 with NCI-H23 was 17.6 µM (inactive); in the assay on UACC-257, 17.9 µM (inactive); in the assay on CAKI-1, 20.1 µM (inactive); with M14, 16.8 µM (inactive); in the assay on OVCAR-5, 17.7 µM (inactive); with NCI-H460, 14 µM (inactive). Also, the GI50 is 15 µM (inactive) in the assay with NCI-H226, 21.6 µM (inactive) in the assay on HCC 2998 and 18.6 µM (inactive) in the assay on SK-MEL-2.

With `C/C(=N/Nc1ccc([N+](=O)[O-])cc1[N+](=O)[O-])C(CC(C(=O)Nc1ccccc1C)/C(C)=N\Nc1ccc([N+](=O)[O-])cc1[N+](=O)[O-])C(=O)Nc1ccccc1C` (configuration not stated), the GI50 is 12.8 µM (inactive) in the assay on COLO 205; 13 µM (inactive) with SF-539; 19.7 µM (inactive) with A549; 31 µM (inactive) with KM-20L2; 13.5 µM (inactive) with HCT-116; 10.1 µM (inactive) with SNB-75. For the same molecule, the GI50 was 11.3 µM (inactive) in the assay with NCI-H23; 14.4 µM (inactive) in the assay with UACC-257; 14.2 µM (inactive) in the assay with CAKI-1; 18 µM (inactive) in the assay with M14; 16.9 µM (inactive) with OVCAR-5; 12.5 µM (inactive) with NCI-H460. For the same molecule, the GI50 was 6.65 µM (inactive) in the assay on NCI-H226, 21.6 µM (inactive) with HCC 2998 and 13.3 µM (inactive) in the assay on SK-MEL-2.

As to `CCN(CC)Cc1cc(Nc2c3ccccc3nc3c2[nH]c2ccccc23)ccc1O`, the GI50 in the assay on COLO 205 was 1.02 µM (active); with SF-539, 1.35 µM (inactive); with A549, 0.352 µM (active); in the assay on KM-20L2, 0.867 µM (active); in the assay with HCT-116, 0.345 µM (active); with SNB-75 it was 1.59 µM (inactive). The GI50 in the assay with NCI-H23 was 1.43 µM (inactive); in the assay with UACC-257 it was 2.44 µM (inactive); in the assay on CAKI-1 it was 1.46 µM (inactive); in the assay with M14, 1.7 µM (inactive); in the assay with OVCAR-5, 1.22 µM (inactive); with NCI-H460, 0.75 µM (active). For the same molecule, the GI50 in the assay on NCI-H226 was 1.85 µM (inactive); in the assay on SK-MEL-2 it was 1.34 µM (inactive).

In the case of `C=CCc1cc(-c2cc(CC=C)c(O)c(CNC)c2)cc(CNC)c1O`, the GI50 with COLO 205 is 18.5 µM (inactive); in the assay on A549, 17.8 µM (inactive); in the assay on KM-20L2, 16.6 µM (inactive); with HCT-116, 14.7 µM (inactive); in the assay on SNB-75 it was 11 µM (inactive); in the assay with NCI-H23, 15.8 µM (inactive). The GI50 was 16 µM (inactive) in the assay on UACC-257; 15.6 µM (inactive) with M14; 16.3 µM (inactive) in the assay on NCI-H460; 16.9 µM (inactive) in the assay with NCI-H226; 16.3 µM (inactive) in the assay with HCC 2998; 18.6 µM (inactive) in the assay on SK-MEL-2.

As to `COCN1CCN=c2c1c1c3c(c4ccccc4n23)CCC1`, the GI50 in the assay on MDA-MB-231, with MCF7, in the assay on COLO 205, in the assay with SF-539, in the assay with MDA-MB-435 and in the assay on A549 was > 100 µM (inactive) each time. The GI50 in the assay on HCT-116, with SNB-75, in the assay on NCI-H23, in the assay with PC-3, in the assay with UACC-257 and in the assay on BT-549 was > 100 µM (inactive) each time. For the same molecule, the GI50 is > 100 µM (inactive) in the assay on CAKI-1; > 100 µM (inactive) in the assay on M14; > 100 µM (inactive) in the assay with OVCAR-5; > 100 µM (inactive) in the assay on NCI-H460; 10.7 µM (inactive) with NCI-H226; > 100 µM (inactive) with HCC 2998. Further, the GI50 with SK-MEL-2 was > 100 µM (inactive).

On to `C=C(C)[C@@H]1C[C@H]2O[C@](O)(C(=C)CC(=O)/C=C(/C)C[C@@H]3OC(=O)[C@]24O[C@@H]34)[C@H]1O`, for which the GI50 in the assay on MDA-MB-231, with MCF7, in the assay with COLO 205, in the assay on SF-539, in the assay on MDA-MB-435 and with A549 was > 100 µM (inactive) throughout. In addition, the GI50 with HCT-116, in the assay on SNB-75, in the assay on NCI-H23, in the assay on PC-3, in the assay with UACC-257 and in the assay on BT-549 was > 100 µM (inactive) throughout. Further, the GI50 with CAKI-1, in the assay with M14, in the assay on OVCAR-5, in the assay on NCI-H460, in the assay with NCI-H226 and in the assay on HCC 2998 was > 100 µM (inactive) throughout. The GI50 in the assay on SK-MEL-2 was > 100 µM (inactive).

Take `O=C(NC12CC3CC(CC(F)(C3)C1)C2)c1ccccc1`: the GI50 in the assay on COLO 205 is > 100 µM (inactive); with SF-539 it was > 100 µM (inactive); in the assay on A549, > 100 µM (inactive); with KM-20L2, > 100 µM (inactive); in the assay with HCT-116, > 100 µM (inactive); in the assay with SNB-75 it was 43.9 µM (inactive). Also, the GI50 in the assay on NCI-H23, in the assay on UACC-257, in the assay with M14, in the assay on OVCAR-5, in the assay with NCI-H460 and with HCC 2998 was > 100 µM (inactive) each time. Also, in the assay on SK-MEL-2, the GI50 is > 100 µM (inactive).
